Test results taken from the supplement of paper PMC10307832.

Assays:
Test in all cases: relative viability (nuclei count vs DMSO), 5 days (fraction); higher = more cells survive
A-427 = test system: A-427
Outline: (§1)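 Relative viability divides the nuclei count in treated wells by that in vehicle wells. Lung cancer cell lines were seeded in 1536-well plates, dosed by pin tool the next day, and fixed and stained after 5 days in one step with final 0.05% Triton X-100, 1% formaldehyde and 1 ug/ml Hoechst. Dosing was a single drug or a fixed anchor-drug dose plus five library-drug doses (not always all listed) in √10 steps, and values are medians of duplicate plates imaged at 4×.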

COR-L 105 = test system: COR-L 105
Outline: as §1

EPLC-272H = test system: EPLC-272H
Outline: as §1

HCC-366 = test system: HCC-366
Outline: as §1

HCC-78 = test system: HCC-78
Outline: as §1

HOP-62 = test system: HOP-62
Outline: as §1

LC-2-ad = test system: LC-2-ad
Outline: as §1

LCLC-97TM1 = test system: LCLC-97TM1
Outline: as §1

LU99A = test system: LU99A
Outline: as §1

LXF-289 = test system: LXF-289
Outline: as §1

NCI-H1755 = test system: NCI-H1755
Outline: as §1

NCI-H1793 = test system: NCI-H1793
Outline: as §1

NCI-H1915 = test system: NCI-H1915
Outline: as §1

NCI-H1944 = test system: NCI-H1944
Outline: as §1

NCI-H1975 = test system: NCI-H1975
Outline: as §1

NCI-H2085 = test system: NCI-H2085
Outline: as §1

NCI-H2170 = test system: NCI-H2170
Outline: as §1

NCI-H2342 = test system: NCI-H2342
Outline: as §1

NCI-H358 = test system: NCI-H358
Outline: as §1

NCI-H460 = test system: NCI-H460
Outline: as §1

SK-LU-1 = test system: SK-LU-1
Outline: as §1

SW 900 = test system: SW 900
Outline: as §1

UMC-11 = test system: UMC-11
Outline: as §1

COc1cc(N2CCC(C(N)=O)CC2)ccc1Nc1nc(N)c(Cl)c(Nc2ccccc2S(=O)(=O)C(C)C)n1 [HG-5-88-01] + Cc1cc(Nc2cc(N3CCN(C)CC3)nc(Sc3ccc(NC(=O)C4CC4)cc3)n2)n[nH]1 [Tozasertib] (partner 0.1 µM)
relative viability (A-427; first compound 0.04 µM): 0.193 | relative viability (A-427; first compound 0.1265 µM): 0.208 | relative viability (A-427; first compound 0.4 µM): 0.158 | relative viability (A-427; first compound 1.265 µM): 0.184 | relative viability (A-427; first compound 4 µM): 0.18 | relative viability (COR-L 105; first compound 0.04 µM): 0.377 | relative viability (COR-L 105; first compound 0.1265 µM): 0.379 | relative viability (COR-L 105; first compound 0.4 µM): 0.317 | relative viability (COR-L 105; first compound 1.265 µM): 0.312 | relative viability (COR-L 105; first compound 4 µM): 0.42 | relative viability (EPLC-272H; first compound 0.04 µM): 0.257 | relative viability (EPLC-272H; first compound 0.1265 µM): 0.301 | relative viability (EPLC-272H; first compound 0.4 µM): 0.323 | relative viability (EPLC-272H; first compound 1.265 µM): 0.141 | relative viability (EPLC-272H; first compound 4 µM): 0.063 | relative viability (HCC-366; first compound 0.04 µM): 0.169 | relative viability (HCC-366; first compound 0.1265 µM): 0.0937 | relative viability (HCC-366; first compound 0.4 µM): 0.0774 | relative viability (HCC-366; first compound 1.265 µM): 0.0436 | relative viability (HCC-366; first compound 4 µM): 0.0402 | relative viability (HCC-78; first compound 0.04 µM): 0.428 | relative viability (HCC-78; first compound 0.1265 µM): 0.315 | relative viability (HCC-78; first compound 0.4 µM): 0.424 | relative viability (HCC-78; first compound 1.265 µM): 0.231 | relative viability (HCC-78; first compound 4 µM): 0.279 | relative viability (HOP-62; first compound 0.04 µM): 0.357 | relative viability (HOP-62; first compound 0.1265 µM): 0.359 | relative viability (HOP-62; first compound 0.4 µM): 0.307 | relative viability (HOP-62; first compound 1.265 µM): 0.327 | relative viability (HOP-62; first compound 4 µM): 0.334 | relative viability (LC-2-ad; first compound 0.04 µM): 0.505 | relative viability (LC-2-ad; first compound 0.1265 µM): 0.517 | relative viability (LC-2-ad; first compound 0.4 µM): 0.579 | relative viability (LC-2-ad; first compound 1.265 µM): 0.299 | relative viability (LC-2-ad; first compound 4 µM): 0.255 | relative viability (LCLC-97TM1; first compound 0.04 µM): 0.215 | relative viability (LCLC-97TM1; first compound 0.1265 µM): 0.205 | relative viability (LCLC-97TM1; first compound 0.4 µM): 0.226 | relative viability (LCLC-97TM1; first compound 1.265 µM): 0.148 | relative viability (LCLC-97TM1; first compound 4 µM): 0.0909 | relative viability (LU99A; first compound 0.04 µM): 0.29 | relative viability (LU99A; first compound 0.1265 µM): 0.301 | relative viability (LU99A; first compound 0.4 µM): 0.264 | relative viability (LU99A; first compound 1.265 µM): 0.267 | relative viability (LU99A; first compound 4 µM): 0.266 | relative viability (LXF-289; first compound 0.04 µM): 0.156 | relative viability (LXF-289; first compound 0.1265 µM): 0.179 | relative viability (LXF-289; first compound 0.4 µM): 0.185 | relative viability (LXF-289; first compound 1.265 µM): 0.196 | relative viability (LXF-289; first compound 4 µM): 0.0786 | relative viability (NCI-H1755; first compound 0.04 µM): 0.602 | relative viability (NCI-H1755; first compound 0.1265 µM): 0.589 | relative viability (NCI-H1755; first compound 0.4 µM): 0.587 | relative viability (NCI-H1755; first compound 1.265 µM): 0.512 | relative viability (NCI-H1755; first compound 4 µM): 0.495 | relative viability (NCI-H1793; first compound 0.1265 µM): 0.313 | relative viability (NCI-H1793; first compound 0.4 µM): 0.293 | relative viability (NCI-H1793; first compound 4 µM): 0.216 | relative viability (NCI-H1915; first compound 0.04 µM): 0.402 | relative viability (NCI-H1915; first compound 0.1265 µM): 0.436 | relative viability (NCI-H1915; first compound 0.4 µM): 0.453 | relative viability (NCI-H1915; first compound 1.265 µM): 0.429 | relative viability (NCI-H1915; first compound 4 µM): 0.339 | relative viability (NCI-H1944; first compound 0.04 µM): 0.268 | relative viability (NCI-H1944; first compound 0.1265 µM): 0.274 | relative viability (NCI-H1944; first compound 0.4 µM): 0.261 | relative viability (NCI-H1944; first compound 1.265 µM): 0.239 | relative viability (NCI-H1944; first compound 4 µM): 0.235 | relative viability (NCI-H1975; first compound 0.04 µM): 0.815 | relative viability (NCI-H1975; first compound 0.1265 µM): 0.715 | relative viability (NCI-H1975; first compound 0.4 µM): 0.565 | relative viability (NCI-H1975; first compound 1.265 µM): 0.251 | relative viability (NCI-H1975; first compound 4 µM): 0.143 | relative viability (NCI-H2085; first compound 0.04 µM): 0.805 | relative viability (NCI-H2085; first compound 0.1265 µM): 0.784 | relative viability (NCI-H2085; first compound 0.4 µM): 0.776 | relative viability (NCI-H2085; first compound 1.265 µM): 0.696 | relative viability (NCI-H2085; first compound 4 µM): 0.391 | relative viability (NCI-H2170; first compound 0.04 µM): 0.768 | relative viability (NCI-H2170; first compound 0.1265 µM): 0.67 | relative viability (NCI-H2170; first compound 0.4 µM): 0.678 | relative viability (NCI-H2170; first compound 1.265 µM): 0.464 | relative viability (NCI-H2170; first compound 4 µM): 0.635 | relative viability (NCI-H2342; first compound 0.04 µM): 0.563 | relative viability (NCI-H2342; first compound 0.1265 µM): 0.547 | relative viability (NCI-H2342; first compound 0.4 µM): 0.574 | relative viability (NCI-H2342; first compound 1.265 µM): 0.273 | relative viability (NCI-H2342; first compound 4 µM): 0.443 | relative viability (NCI-H358; first compound 0.04 µM): 0.107 | relative viability (NCI-H358; first compound 0.1265 µM): 0.0991 | relative viability (NCI-H358; first compound 0.4 µM): 0.0776 | relative viability (NCI-H358; first compound 1.265 µM): 0.0713 | relative viability (NCI-H358; first compound 4 µM): 0.0702 | relative viability (NCI-H460; first compound 0.04 µM): 0.722 | relative viability (NCI-H460; first compound 0.1265 µM): 0.423 | relative viability (NCI-H460; first compound 0.4 µM): 0.255 | relative viability (NCI-H460; first compound 1.265 µM): 0.0498 | relative viability (NCI-H460; first compound 4 µM): 0.064 | relative viability (SK-LU-1; first compound 0.04 µM): 0.337 | relative viability (SK-LU-1; first compound 0.1265 µM): 0.311 | relative viability (SK-LU-1; first compound 0.4 µM): 0.298 | relative viability (SK-LU-1; first compound 1.265 µM): 0.228 | relative viability (SK-LU-1; first compound 4 µM): 0.189 | relative viability (SW 900; first compound 0.04 µM): 0.533 | relative viability (SW 900; first compound 0.1265 µM): 0.656 | relative viability (SW 900; first compound 0.4 µM): 0.652 | relative viability (SW 900; first compound 1.265 µM): 0.417 | relative viability (SW 900; first compound 4 µM): 0.268 | relative viability (UMC-11; first compound 0.04 µM): 0.213 | relative viability (UMC-11; first compound 0.1265 µM): 0.205 | relative viability (UMC-11; first compound 1.265 µM): 0.192 | relative viability (UMC-11; first compound 4 µM): 0.191
